Results published in US20070184519A1, “Peptides, polypeptides, and proteins of reduced immunogenicity and methods for their production” (priority 2003, published 2007).
pIC50: −log10 of the molar value. Like-named read-outs stand apart in the source and are kept apart here. Ends that are not written are not given here.

Legend:
[1] = biological target: T1, DRB1*0405 (Homo sapiens, UniProt P01903+P01911, A100R/A169T/D86S/F76Y/I96L/K127E/L162R/M171V/N62H/P40V/Q125Y/R42H/S133A/S149N/S66Y/V115G/V209L/W38E); test: Class II peptide-binding assay DRB1*0405 (DR4w15)
T1 construct: Epstein-Barr virus (EBV) transformed homozygous cell lines were used as sources of human HLA Class II molecules; endogenous in cells; host or cells: KT3 (EBV-transformed homozygous B cell line)

[2] = biological target: T2, DRB4*0101 (Homo sapiens, UniProt P01903+P13762, G164S); test: Class II peptide-binding assay DRB4*0101 (DRw53)
T2 construct: expressed in transfected cells; host or cells: transfected fibroblasts L257.6

[3] = biological target: T3, DRB1*0101 (Homo sapiens, UniProt P01903+P01911, A100R/D57E/F55L/F60I/F76Y/I96L/L162R/M171V/P40L/Q125E/R42F/V115G/Y59C); test: Class II peptide-binding assay DRB1*0101 (DR1)
T3 construct: Epstein-Barr virus (EBV) transformed homozygous cell lines were used as sources of human HLA Class II molecules; endogenous in cells; host or cells: LG2 (EBV-transformed homozygous B cell line)

[4] = biological target: T4, DRB1*0301 (Homo sapiens, UniProt P01903+P01911, A100K/A102G/A103R/A169T/F55Y/I96L/K41T/L162R/M171V/P40S/Q125H/Q178H/Q39Y/R42S/S66N/T106N/T262R/W38E/Y61H); test: Class II peptide-binding assay DRB1*0301 (DR3)
T4 construct: Epstein-Barr virus (EBV) transformed homozygous cell lines were used as sources of human HLA Class II molecules; endogenous in cells; host or cells: MAT (EBV-transformed homozygous B cell line)

[5] = biological target: T5, DRB1*0401 (Homo sapiens, UniProt P01903+P01911, A100K/A169T/F76Y/I96L/K127E/L162R/M171V/N62H/P40V/Q125Y/R42H/S133A/S149N/S66Y/V115G/V209L/W38E); test: Class II peptide-binding assay DRB1*0401 (DR4w4)
T5 construct: Epstein-Barr virus (EBV) transformed homozygous cell lines were used as sources of human HLA Class II molecules; endogenous in cells; host or cells: PREISS (EBV-transformed homozygous B cell line)

[6] = biological target: T6, DRB1*0701 (Homo sapiens, UniProt P01903+P01911, A100R/A102G/A103Q/D57E/D86V/E43K/F76Y/K127E/L162R/M171V/P40G/Q125H/Q99D/R33Q/R42Y/R54Q/S133A/S66F/T210M/V115G/Y107V/Y59L/Y89S); test: Class II peptide-binding assay DRB1*0701 (DR7)
T6 construct: Epstein-Barr virus (EBV) transformed homozygous cell lines were used as sources of human HLA Class II molecules; endogenous in cells; host or cells: PITOUT (EBV-transformed homozygous B cell line)

[7] = biological target: T7, DRB5*0101 (Homo sapiens, UniProt P01903+Q30154); test: Class II peptide-binding assay DRB5*0101 (DR2w2a)
T7 construct: Epstein-Barr virus (EBV) transformed homozygous cell lines were used as sources of human HLA Class II molecules; endogenous in cells; host or cells: GM3107 (EBV-transformed homozygous B cell line)

[8] = biological target: T8, DRB1*1101 (Homo sapiens, UniProt P01903+P01911, A100R/A169T/A87E/I96F/K41T/L162R/M171V/P40S/Q125H/Q178H/Q39Y/Q99D/R42S/S66Y/T262R/V115G/W38E); test: Class II peptide-binding assay DRB1*1101 (DR5w11)
T8 construct: Epstein-Barr virus (EBV) transformed homozygous cell lines were used as sources of human HLA Class II molecules; endogenous in cells; host or cells: SWEIG (EBV-transformed homozygous B cell line)

[9] = biological target: T9, DRB1*1302 (Homo sapiens, UniProt P01903+P01911, A100E/A169T/K41T/L162R/M171V/P40S/Q125H/Q178H/Q39Y/Q99D/R42S/S66N/T262R/V115G/W38E/Y61H); test: Class II peptide-binding assay DRB1*1302 (DR6w19)
T9 construct: Epstein-Barr virus (EBV) transformed homozygous cell lines were used as sources of human HLA Class II molecules; endogenous in cells; host or cells: HO301 / H0301 (EBV-transformed homozygous B cell line)

[10] = biological target: T10, DRB3*0101 (Homo sapiens, UniProt P01903+P79483); test: Class II peptide-binding assay DRB3*0101 (DR52a)
T10 construct: expressed in transfected cells; host or cells: transfected fibroblasts TR81.19

[11] = biological target: T11, DRB1*0802 (Homo sapiens, UniProt P01903+P01911, A100R/A103L/A169T/F76Y/H45Y/I96F/K41T/L162R/M171V/P40S/Q125H/Q178H/Q39Y/Q99D/R218S/R42G/S66Y/V115G/W38E); test: Class II peptide-binding assay DRB1*0802 (DR8w2)
T11 construct: Epstein-Barr virus (EBV) transformed homozygous cell lines were used as sources of human HLA Class II molecules; endogenous in cells; host or cells: OLL (EBV-transformed homozygous B cell line)

[12] = biological target: T12, DRB1*0404 (Homo sapiens, UniProt P01903+P01911, A100R/A169T/F76Y/I96L/K127E/L162R/M171V/N62H/P40V/Q125Y/R42H/S133A/S149N/S66Y/V209L/W38E); test: Class II peptide-binding assay DRB1*0404 (DR4w14)
T12 construct: Epstein-Barr virus (EBV) transformed homozygous cell lines were used as sources of human HLA Class II molecules; endogenous in cells; host or cells: BIN40 (EBV-transformed homozygous B cell line)

[13] = biological target: DRB1*0901 (Homo sapiens, UniProt P01903+P01911, A100R/A103E/D57H/D86V/F55Y/F60I/F76Y/I96F/K127E/L162R/M171V/P40D/Q125H/Q99R/R33Q/R42F/S133A/S66N/T210M/V115G/W38K/Y107V/Y59G/Y89S); test: Class II peptide-binding assay DRB1*0901 (DR9)
[14] = known HLA-DR and DQ restricted epitopes, Table 6
[15] = inhibition of radiolabeled probe binding, — read as no appreciable binding

T8 sequence (P01903 26-254, other chains not shown): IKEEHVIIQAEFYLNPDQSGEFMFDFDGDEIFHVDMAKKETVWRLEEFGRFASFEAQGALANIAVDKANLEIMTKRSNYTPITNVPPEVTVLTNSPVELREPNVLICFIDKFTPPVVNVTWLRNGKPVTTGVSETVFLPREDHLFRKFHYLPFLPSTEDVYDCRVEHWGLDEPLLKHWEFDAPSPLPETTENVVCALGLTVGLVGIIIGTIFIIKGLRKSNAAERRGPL
T4 sequence (P01903 26-254, other chains not shown): as above
T9 sequence (P01903 26-254, other chains not shown): as above

Molecule	pIC50 [1]	pIC50 [7]	pIC50 [8]	pIC50 [3]	pIC50 [5]	pIC50 [2]	pIC50 [4]	further results
CC[C@H](C)[C@H](NC(=O)[C@H](CCCNC(=N)N)NC(=O)[C@H](Cc1c[nH]c2ccccc12)NC(=O)[C@@H](NC(=O)[C@H](C)NC(=O)CNC(=O)[C@H](Cc1c[nH]c2ccccc12)NC(=O)[C@H](CO)NC(=O)[C@@H](N)CCC(=O)O)C(C)C)C(=O)N[C@@H](CC(=O)O)C(=O)N[C@H](C(=O)N1CCC[C@H]1C(=O)N[C@@H](CC(=O)O)C(=O)N[C@@H](CCCCN)C(=O)N[C@@H](CC(C)C)C(=O)N[C@H](C(=O)NCC(=O)N1CCC[C@H]1C(=O)N[C@@H](Cc1ccccc1)C(=O)N[C@H](C(=O)O)[C@@H](C)O)[C@@H](C)O)[C@@H](C)O								pIC50 [1, 14]: 5.76; pIC50 [2, 14]: 5.95; pIC50 [3, 14]: 5.60; pIC50 [4, 14]: 5.50; pIC50 [5, 14]: < 4.70; pIC50 [6, 14]: < 4.70
CC(C)C[C@H](NC(=O)[C@H](Cc1ccccc1)NC(=O)[C@H](CC(N)=O)NC(=O)[C@H](CO)NC(=O)[C@H](Cc1ccc(O)cc1)NC(=O)[C@@H](NC(=O)[C@H](CCCNC(=N)N)NC(=O)[C@H](Cc1ccccc1)NC(=O)[C@H](C)NC(=O)[C@H](CCCCN)NC(=O)[C@H](CCCNC(=N)N)NC(=O)[C@H](Cc1ccccc1)NC(=O)[C@@H](NC(=O)[C@@H](N)CC(=O)O)[C@@H](C)O)C(C)C)C(=O)N[C@@H](CCCNC(=N)N)C(=O)O	7.32	7.10	8.28	7.17	7.60			pIC50 [9]: 6.91
TSLCFSESIPTPSNR								pIC50 [10, 15]: 4.65
LLKDLEEGIQTLMGR								pIC50 [2, 15]: 5.43
CC[C@H](C)[C@H](NC(=O)[C@H](Cc1ccc(O)cc1)NC(=O)[C@@H]1CCCN1C(=O)[C@H](CC(=O)O)NC(=O)[C@H](CCC(=O)O)NC(=O)[C@H](CC(C)C)NC(=O)[C@@H](NC(=O)[C@H](C)N)C(C)C)C(=O)N[C@@H](CC(C)C)C(=O)N[C@@H](CC(C)C)C(=O)N[C@H](C(=O)N[C@@H](CO)C(=O)N[C@@H](CO)C(=O)N[C@@H](CCCCN)C(=O)N[C@H](C(=O)N[C@@H](CO)C(=O)O)C(C)C)C(C)C		5.60				5.38		pIC50 [10]: 5.30; pIC50 [8, 14]: 5.18; pIC50 [4, 14]: < 4.70; pIC50 [5, 14]: 6.74; pIC50 [6, 14]: 7.14
CC(C)C[C@H](NC(=O)CN)C(=O)N[C@@H](CCCNC(=N)N)C(=O)N[C@@H](CO)C(=O)N[C@@H](CC(C)C)C(=O)N[C@H](C(=O)N[C@H](C(=O)N[C@@H](CC(C)C)C(=O)N[C@@H](CC(C)C)C(=O)N[C@@H](CC(=O)O)C(=O)N[C@@H](C)C(=O)N[C@@H](CC(C)C)C(=O)NCC(=O)N[C@@H](C)C(=O)N[C@@H](CCC(N)=O)C(=O)O)[C@@H](C)O)[C@@H](C)O	7.96	6.09	8.00	7.85	8.07		4.89	pIC50 [11]: 6.62; pIC50 [12]: 8.03; pIC50 [6]: 4.99
DTGRKLFRVYSNFLR	7.41	7.92	7.59	7.74	7.34	5.95	5.89	pIC50 [9]: 8.12; pIC50 [13]: 6.79
CC(C)C[C@H](NC(=O)[C@H](CC(=O)O)NC(=O)[C@H](CC(N)=O)NC(=O)[C@H](CO)NC(=O)[C@H](Cc1ccc(O)cc1)NC(=O)[C@@H](NC(=O)[C@H](CCCNC(=N)N)NC(=O)[C@H](Cc1ccccc1)NC(=O)[C@H](CC(C)C)NC(=O)[C@H](CCCCN)NC(=O)[C@H](CCCNC(=N)N)NC(=O)[C@H](Cc1ccccc1)NC(=O)[C@@H](NC(=O)[C@@H](N)CC(=O)O)[C@@H](C)O)C(C)C)C(=O)N[C@@H](CCCNC(=N)N)C(=O)O			8.44	7.07	7.62	5.86	4.94	pIC50 [11]: 7.12
VLEEKLEKEDFTRGK								pIC50 ([10]; IFNb 15-mer peptides, Table 5D): 5.86; pIC50 ([7]; IFNb 15-mer peptides, Table 5D): 5.34; pIC50 ([2]; IFNb 15-mer peptides, Table 5D): 4.72
